The results in this text go back to patent publication US10710980B2, “Aminopyridine derivatives and their use as selective ALK-2 inhibitors” (priority 2016, dated 2020).

Test [1] has as its target T1, wild-type ALK2 (aa172-499) (Homo sapiens (Human), UniProt Q04771). Kind of test: ADPGlo biochemical autophosphorylation assay, ALK2. Conditions: 15 μm ATP, 60 min at 32° C. For orientation: ADP-Glo turns the ADP formed in a reaction into a luminescent signal.
A further test concerns the target ALK3 (aa198-525) (Homo sapiens (Human), UniProt P36894). Description: ADPGlo biochemical autophosphorylation assay, ALK3. To be noted: 15 μm ATP, 60 min at 32° C.
Test [2] has as its target T1, wild-type ALK2 (aa172-499). Description: Caliper biochemical peptide phosphorylation assay, ALK2. To be noted: 15 μm ATP, 60 min at 30° C.; read-out: ALK2 EPK (IC50).
A further test has as its target ALK1 (aa166-493) (Homo sapiens (Human), UniProt P37023). Description: Caliper biochemical peptide phosphorylation assay, ALK1. Conditions: 15 μm ATP, 60 min at 30° C.; read-out: ALK1 EPK (IC50).
The target of a further test is ALK5 (aa162-503) (Homo sapiens (Human), UniProt P36897). Description: Caliper biochemical peptide phosphorylation assay, ALK5. To be noted: 15 μm ATP, 60 min at 30° C.; read-out: ALK5 EPK (IC50).
Chain of ALK5 (aa162-503) (P36897 162-503): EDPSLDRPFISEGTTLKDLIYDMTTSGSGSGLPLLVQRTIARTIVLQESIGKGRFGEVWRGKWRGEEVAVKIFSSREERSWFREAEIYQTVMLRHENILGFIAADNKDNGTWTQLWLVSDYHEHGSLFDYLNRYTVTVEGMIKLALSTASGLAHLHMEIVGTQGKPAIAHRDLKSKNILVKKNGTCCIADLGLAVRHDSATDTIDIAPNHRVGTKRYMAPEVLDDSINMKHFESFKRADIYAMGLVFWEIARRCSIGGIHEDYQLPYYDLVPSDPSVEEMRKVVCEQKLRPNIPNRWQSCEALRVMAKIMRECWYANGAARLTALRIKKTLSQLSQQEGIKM
For another test, the target named is ALK6 (aa168-495) (Homo sapiens (Human), UniProt O00238). Kind of test: Caliper biochemical peptide phosphorylation assay, ALK6. Conditions: 15 μm ATP, 60 min at 30° C.; read-out: ALK6 EPK (IC50).
Chain of ALK6 (aa168-495) (O00238 168-495): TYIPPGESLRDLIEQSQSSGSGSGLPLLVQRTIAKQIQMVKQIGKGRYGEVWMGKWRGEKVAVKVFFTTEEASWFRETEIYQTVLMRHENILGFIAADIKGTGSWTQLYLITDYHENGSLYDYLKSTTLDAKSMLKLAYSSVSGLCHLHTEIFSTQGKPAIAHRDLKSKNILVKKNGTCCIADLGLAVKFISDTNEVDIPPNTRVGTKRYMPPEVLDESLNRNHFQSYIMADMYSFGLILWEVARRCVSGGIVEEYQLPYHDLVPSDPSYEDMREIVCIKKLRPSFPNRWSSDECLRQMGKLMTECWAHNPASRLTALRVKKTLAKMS
In test [3] the test system is BMP response element (BRE) luciferase reporter in HuH7 cells, BMP6 stimulated. Kind of test: BMP signaling reporter gene assay. The test is classed as cell-based. Conditions: Homo sapiens, Huh-7; HuH7 BRE-luciferase, BMP6 100 ng/ml, 5 hours; read-out: MSD BMP RGA IC50. For orientation: A reporter such as luciferase makes a cellular process visible.

Chain of ALK1 (aa166-493) (P37023 166-493): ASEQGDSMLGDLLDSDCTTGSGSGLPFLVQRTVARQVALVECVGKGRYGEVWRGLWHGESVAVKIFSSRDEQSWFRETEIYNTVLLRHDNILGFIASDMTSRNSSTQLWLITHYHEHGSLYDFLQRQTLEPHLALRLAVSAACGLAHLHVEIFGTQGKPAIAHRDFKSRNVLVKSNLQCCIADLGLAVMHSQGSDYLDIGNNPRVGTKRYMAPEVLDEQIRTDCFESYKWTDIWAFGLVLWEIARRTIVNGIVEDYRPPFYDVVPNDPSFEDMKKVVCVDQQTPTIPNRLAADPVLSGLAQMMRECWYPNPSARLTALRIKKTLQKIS
Chain of ALK3 (aa198-525) (P36894 198-525): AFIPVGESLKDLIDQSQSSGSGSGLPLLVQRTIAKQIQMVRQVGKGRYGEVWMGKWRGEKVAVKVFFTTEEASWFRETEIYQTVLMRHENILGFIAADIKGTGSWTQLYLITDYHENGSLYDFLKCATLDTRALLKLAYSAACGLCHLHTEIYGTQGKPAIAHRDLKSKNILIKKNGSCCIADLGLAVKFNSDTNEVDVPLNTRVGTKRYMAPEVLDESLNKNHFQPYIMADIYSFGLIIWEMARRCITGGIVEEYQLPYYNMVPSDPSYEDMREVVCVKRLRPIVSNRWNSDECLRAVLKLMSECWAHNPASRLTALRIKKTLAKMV
T1 sequence (Q04771 172-499): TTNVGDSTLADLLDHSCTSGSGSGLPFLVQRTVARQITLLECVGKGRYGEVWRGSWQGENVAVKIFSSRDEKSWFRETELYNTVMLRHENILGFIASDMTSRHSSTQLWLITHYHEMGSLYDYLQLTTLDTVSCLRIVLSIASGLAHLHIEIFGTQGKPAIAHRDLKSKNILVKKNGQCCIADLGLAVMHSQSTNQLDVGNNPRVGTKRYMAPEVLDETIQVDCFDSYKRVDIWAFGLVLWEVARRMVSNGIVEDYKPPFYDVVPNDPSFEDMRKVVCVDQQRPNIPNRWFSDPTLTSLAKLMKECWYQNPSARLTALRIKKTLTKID

As usually defined, the IC50 is the concentration needed to halve the response being measured. For `CN1CCN(C(=O)c2ccc(-c3cnc(N)c(C(=O)NC4CCCCC4)c3)cc2)CC1` [Example 45, 2-amino-N-cyclohexyl-5-(4-(4-methylpiperazine-1-carbonyl)phenyl)nicotinamide], the IC50 in test [1] worked out at 20 nM; at ALK3 (aa198-525) it was 1600 nM; in test [2], 25 nM; on ALK1 (aa166-493) it was 750 nM; on ALK5 (aa162-503), 2700 nM; on ALK6 (aa168-495), 4800 nM. For the same molecule, in test [3], the concentration for half-maximal inhibition (IC50) stood at 365 nM.
In the case of `C[C@@H]1CCCN1Cc1ccc(-c2cnc(N)c(C(=O)N[C@H]3CC[C@](C)(O)CC3)c2)c(F)c1F` [Example 74, 2-amino-5-(2,3-difluoro-4-(((R)-2-methylpyrrolidin-1-yl)methyl)phenyl)-N-((1r,4R)-4-hydroxy-4-methylcyclohexyl)nicotinamide], the half-maximal inhibitory concentration (IC50) in test [1] was 64 nM; against ALK3 (aa198-525), 13200 nM; in test [2], 70 nM; on ALK1 (aa166-493), 2500 nM; at ALK5 (aa162-503), 10000 nM; on ALK6 (aa168-495), 10000 nM. Further, the IC50 in test [3] is 550 nM.
On to `CC(C)(O)C12CC(NC(=O)c3cc(-c4ccc([C@@]56C[C@@H]5CN(C5CCOCC5)C6)cc4)cnc3N)(C1)C2` [Example 83, 2-amino-N-(3-(2-hydroxypropan-2-yl)bicyclo[1.1.1]pentan-1-yl)-5-(4-((1R,5S)-3-(tetrahydro-2H-pyran-4-yl)-3-azabicyclo[3.1.0]hexan-1-yl)phenyl)nicotinamide], for which the IC50 came to 100 nM in test [1]; 15100 nM at ALK3 (aa198-525); 145 nM in test [2]; 5600 nM on ALK1 (aa166-493); 10000 nM at ALK5 (aa162-503); 10000 nM at ALK6 (aa168-495). Besides, in test [3], the IC50 is 360 nM.
`Nc1ncc(-c2ccc([C@]34C[C@H]3CN(CCF)C4)cc2)cc1C(=O)N[C@H]1CC[C@H](O)CC1` [Example 11, 2-amino-5-(4-((1S,5R)-3-(2-fluoroethyl)-3-azabicyclo[3.1.0]hexan-1-yl)phenyl)-N-((1r,4S)-4-hydroxycyclohexyl)nicotinamide]: the IC50 turned out to be 9 nM in test [1]; 1100 nM at ALK3 (aa198-525); 12 nM in test [2]; 150 nM on ALK1 (aa166-493); 2400 nM on ALK5 (aa162-503); 3900 nM at ALK6 (aa168-495). Also, the IC50 in test [3] was 51 nM.
As to `C[C@H](c1ccc(-c2cnc(N)c(C(=O)N[C@H]3CC[C@H](O)CC3)c2)c(Cl)c1)N1CC2(COC2)C1` [Example 55, 5-(4-((R)-1-(2-oxa-6-azaspiro[3.3]heptan-6-yl)ethyl)-2-chlorophenyl)-2-amino-N-((1r,4R)-4-hydroxycyclohexyl)nicotinamide], the half-inhibitory concentration (IC50) in test [1] turned out to be 22 nM; against ALK3 (aa198-525) it was 2440 nM; in test [2], 30 nM; on ALK1 (aa166-493), 627 nM; on ALK5 (aa162-503), 5030 nM; on ALK6 (aa168-495), 2900 nM. The IC50 in test [3] amounted to 543 nM.
Take `Nc1ncc(-c2cccc(C(=O)N3CCOCC3)c2)cc1C(=O)NC1CCCCC1` [Example 84, 2-amino-N-cyclohexyl-5-(3-(morpholine-4-carbonyl)phenyl)nicotinamide]: the half-maximal inhibitory concentration (IC50) in test [1] came out at 2400 nM; on ALK3 (aa198-525) it was 21900 nM; in test [2], 350 nM; on ALK1 (aa166-493), 20200 nM; at ALK5 (aa162-503), 20200 nM; at ALK6 (aa168-495) it was 20200 nM. For the same molecule, in test [3], the half-maximal inhibitory concentration (IC50) came to 9500 nM.
Turning to `Nc1ncc(-c2ccc([C@@]34C[C@@H]3CN(C3CCOCC3)C4)cc2)cc1C(=O)NC12CCC(O)(CC1)CC2` [Example 34, 2-amino-N-(4-hydroxybicyclo[2.2.2]octan-1-yl)-5-(4-((1R,5S)-3-(tetrahydro-2H-pyran-4-yl)-3-azabicyclo[3.1.0]hexan-1-yl)phenyl)nicotinamide], the IC50 is 18 nM in test [1]; 914 nM against ALK3 (aa198-525); 23 nM in test [2]; 323 nM at ALK1 (aa166-493); 6280 nM on ALK5 (aa162-503); 3300 nM at ALK6 (aa168-495). Moreover, in test [3], the half-inhibitory concentration (IC50) came out at 49 nM.
In the case of `Nc1ncc(-c2ccc(N3CCCCC3)cc2)cc1C(=O)NC1CCCCC1` [Example 61, 2-amino-N-cyclohexyl-5-(4-(piperidin-1-yl)phenyl)nicotinamide], the half-inhibitory concentration (IC50) in test [1] is 43 nM; against ALK3 (aa198-525), 2100 nM; in test [2], 35 nM; on ALK1 (aa166-493), 940 nM; at ALK5 (aa162-503), 7200 nM; at ALK6 (aa168-495), 20200 nM. For the same molecule, the concentration for half-maximal inhibition (IC50) in test [3] amounted to 2300 nM.
Take `CN1CCN(CCNC(=O)c2ccc(-c3cnc(N)c(C(=O)NC4CCCCC4)c3)cc2)CC1` [Example 65, 2-amino-N-cyclohexyl-5-(4-((2-(4-methylpiperazin-1-yl)ethyl)carbamoyl)phenyl)nicotinamide]: the IC50 in test [1] came out at 82 nM; against ALK3 (aa198-525), 2400 nM; in test [2] it was 44 nM; on ALK1 (aa166-493), 580 nM; on ALK5 (aa162-503), 1700 nM; at ALK6 (aa168-495), 10000 nM. The IC50 in test [3] stood at 415 nM.
For the molecule `C#CCN1C[C@H]2C[C@@]2(c2ccc(-c3cnc(N)c(C(=O)N[C@H]4CC[C@H](O)CC4)c3)cc2)C1` [Example 54, 2-amino-N-((1r,4R)-4-hydroxycyclohexyl)-5-(4-((1R,5S)-3-(prop-2-yn-1-yl)-3-azabicyclo[3.1.0]hexan-1-yl)phenyl)nicotinamide], the half-maximal inhibitory concentration (IC50) in test [1] was 11 nM; against ALK3 (aa198-525) it was 920 nM; in test [2], 33 nM; on ALK1 (aa166-493), 140 nM; on ALK5 (aa162-503), 5300 nM; at ALK6 (aa168-495), 3500 nM. The half-inhibitory concentration (IC50) in test [3] worked out at 395 nM.
In the case of `C[C@@H](c1ccc(-c2cnc(N)c(C(=O)N[C@H]3CC[C@H](O)CC3)c2)cc1)N1CC2(COC2)C1` [Example 4, 5-(4-((S)-1-(2-oxa-6-azaspiro[3.3]heptan-6-yl)ethyl)phenyl)-2-amino-N-((1r,4R)-4-hydroxycyclohexyl)nicotinamide], the half-maximal inhibitory concentration (IC50) was found to be 5 nM in test [1]; 830 nM against ALK3 (aa198-525); 13 nM in test [2]; 175 nM on ALK1 (aa166-493); 2450 nM on ALK5 (aa162-503); 1850 nM at ALK6 (aa168-495). In addition, the IC50 in test [3] was 108 nM.
Consider `Nc1ncc(-c2ccc([C@]34C[C@H]3CN(CCN3CCOCC3)C4)cc2)cc1C(=O)N[C@H]1CC[C@H](O)CC1` [Example 13, 2-amino-N-((1r,4S)-4-hydroxycyclohexyl)-5-(4-((1S,5R)-3-(2-morpholinoethyl)-3-azabicyclo[3.1.0]hexan-1-yl)phenyl)nicotinamide], for which the half-maximal inhibitory concentration (IC50) was 8 nM in test [1]; 1400 nM at ALK3 (aa198-525); 13 nM in test [2]; 140 nM at ALK1 (aa166-493); 3100 nM at ALK5 (aa162-503); 3000 nM on ALK6 (aa168-495). The IC50 in test [3] worked out at 78 nM.
Turning to `Nc1ncc(-c2ccc([C@@]34C[C@@H]3CN(C3CCOCC3)C4)cc2)cc1C(=O)NC12CC(CO)(C1)C2` [Example 30, 2-amino-N-(3-(hydroxymethyl)bicyclo[1.1.1]pentan-1-yl)-5-(4-((1R,5S)-3-(tetrahydro-2H-pyran-4-yl)-3-azabicyclo[3.1.0]hexan-1-yl)phenyl)nicotinamide], the IC50 came out at 7 nM in test [1]; 500 nM on ALK3 (aa198-525); 22 nM in test [2]; 210 nM at ALK1 (aa166-493); 4000 nM on ALK5 (aa162-503); 2800 nM at ALK6 (aa168-495). Moreover, the IC50 in test [3] was found to be 68 nM.
Take `Nc1ncc(-c2ccc([C@@]34C[C@@H]3CN(CC(F)(F)F)C4)cc2)cc1C(=O)N[C@H]1CC[C@H](O)CC1` [Example 77, 2-amino-N-((1r,4R)-4-hydroxycyclohexyl)-5-(4-((1R,5S)-3-(2,2,2-trifluoroethyl)-3-azabicyclo[3.1.0]hexan-1-yl)phenyl)nicotinamide]: the half-inhibitory concentration (IC50) is 28 nM in test [1]; 3300 nM on ALK3 (aa198-525); 80 nM in test [2]; 320 nM at ALK1 (aa166-493); 10000 nM at ALK5 (aa162-503); 8600 nM on ALK6 (aa168-495). Further, in test [3], the IC50 is 1300 nM.
With `CC#CCN1C[C@H]2C[C@@]2(c2ccc(-c3cnc(N)c(C(=O)N[C@H]4CC[C@H](O)CC4)c3)cc2)C1` [Example 60, 2-amino-5-(4-((1R,5S)-3-(but-2-yn-1-yl)-3-azabicyclo[3.1.0]hexan-1-yl)phenyl)-N-((1r,4R)-4-hydroxycyclohexyl)nicotinamide], the IC50 in test [1] was 11 nM; against ALK3 (aa198-525), 990 nM; in test [2] it was 42 nM; on ALK1 (aa166-493), 170 nM; on ALK5 (aa162-503), 6300 nM; on ALK6 (aa168-495), 6300 nM. In addition, the IC50 in test [3] was 84 nM.
With `CC(C)N1CCN(c2ccc(-c3cnc(N)c(C(=O)N[C@H]4CC[C@H](O)CC4)c3)c(F)c2)CC1` [Example 8, 2-amino-5-(2-fluoro-4-(4-isopropylpiperazin-1-yl)phenyl)-N-((1r,4r)-4-hydroxycyclohexyl)nicotinamide], the concentration for half-maximal inhibition (IC50) in test [1] came to 13 nM; against ALK3 (aa198-525), 1900 nM; in test [2] it was 12 nM; on ALK1 (aa166-493) it was 220 nM; on ALK5 (aa162-503), 4000 nM; at ALK6 (aa168-495), 5000 nM. Besides, the concentration for half-maximal inhibition (IC50) in test [3] stood at 69 nM.
